Test results from PubChem BioAssay AID1259407 (Chemical Carcinogenesis Research Information System (CCRIS), 2018).
Activity calls are given as the source filed them. How the calls were made is not given here.

Test system: CCRIS mutagenicity, Ames/micronucleus/aberration tests
Test: CCRIS mutagenicity studies
[1] = Test System: AMES SALMONELLA TYPHIMURIUM, Strain/Indicator: TA98, Metabolic Activation: NONE, Method: PREINCUBATION
[2] = Test System: AMES SALMONELLA TYPHIMURIUM, Strain/Indicator: TA98, Metabolic Activation: NONE, Method: STANDARD PLATE
[3] = Test System: AMES SALMONELLA TYPHIMURIUM, Strain/Indicator: TA100, Metabolic Activation: NONE, Method: PREINCUBATION
[4] = Test System: AMES SALMONELLA TYPHIMURIUM, Strain/Indicator: TA100, Metabolic Activation: NONE, Method: STANDARD PLATE
[5] = Test System: AMES SALMONELLA TYPHIMURIUM, Strain/Indicator: TA1535, Metabolic Activation: NONE, Method: PREINCUBATION
[6] = Test System: AMES SALMONELLA TYPHIMURIUM, Strain/Indicator: TA1535, Metabolic Activation: NONE, Method: STANDARD PLATE
[7] = Test System: AMES SALMONELLA TYPHIMURIUM, Strain/Indicator: TA1537, Metabolic Activation: NONE, Method: STANDARD PLATE

Measured: mutagenic call

CCN(CC)CCCC(C)Nc1c2ccc(Cl)cc2nc2ccc(OC)cc12 (configuration not stated)
inactive: [2] inactive; negative | Test System: AMES SALMONELLA TYPHIMURIUM, Strain/Indicator: TA100, Metabolic Activation: HAMSTER, LIVER, S-9, AROCLOR 1254 (10%), Method: PREINCUBATION inactive; negative | [3] inactive; negative | [4] inactive; negative | Test System: AMES SALMONELLA TYPHIMURIUM, Strain/Indicator: TA100, Metabolic Activation: RAT LIVER S-9, AROCLOR 1254 (10%), Method: STANDARD PLATE inactive; negative | Test System: AMES SALMONELLA TYPHIMURIUM, Strain/Indicator: TA100, Metabolic Activation: RAT LIVER S-9, Method: STANDARD PLATE inactive; negative | Test System: AMES SALMONELLA TYPHIMURIUM, Strain/Indicator: TA100, Metabolic Activation: RAT, LIVER, S-9, AROCLOR 1254 (10%), Method: PREINCUBATION inactive; negative | Test System: AMES SALMONELLA TYPHIMURIUM, Strain/Indicator: TA1535, Metabolic Activation: HAMSTER, LIVER, S-9, AROCLOR 1254 (10%), Method: PREINCUBATION inactive; negative | [5] inactive; negative | [6] inactive; negative | Test System: AMES SALMONELLA TYPHIMURIUM, Strain/Indicator: TA1535, Metabolic Activation: RAT LIVER S-9, AROCLOR 1254 (10%), Method: STANDARD PLATE inactive; negative | Test System: AMES SALMONELLA TYPHIMURIUM, Strain/Indicator: TA1535, Metabolic Activation: RAT, LIVER, S-9, AROCLOR 1254 (10%), Method: PREINCUBATION inactive; negative | Test System: E. COLI, Strain/Indicator: WP2 UVRA, Metabolic Activation: RAT LIVER S-9, AROCLOR 1254 (10%), Method: STANDARD PLATE inactive; negative | Test System: MOUSE LYMPHOMA, Strain/Indicator: L5178Y(TK+/TK-), Metabolic Activation: RAT LIVER S-9, AROCLOR 1254 (25%), Method: SUSPENSION/PLATE inactive; negative
active: Test System: AMES SALMONELLA TYPHIMURIUM, Strain/Indicator: TA97, Metabolic Activation: HAMSTER, LIVER, S-9, AROCLOR 1254 (10%), Method: PREINCUBATION active; positive | Test System: AMES SALMONELLA TYPHIMURIUM, Strain/Indicator: TA97, Metabolic Activation: NONE, Method: PREINCUBATION active; positive | Test System: AMES SALMONELLA TYPHIMURIUM, Strain/Indicator: TA97, Metabolic Activation: RAT, LIVER, S-9, AROCLOR 1254 (10%), Method: PREINCUBATION active; positive | Test System: AMES SALMONELLA TYPHIMURIUM, Strain/Indicator: TA98, Metabolic Activation: HAMSTER, LIVER, S-9, AROCLOR 1254 (10%), Method: PREINCUBATION active; positive | [1] active; positive | Test System: AMES SALMONELLA TYPHIMURIUM, Strain/Indicator: TA98, Metabolic Activation: RAT LIVER S-9, AROCLOR 1254 (10%), Method: STANDARD PLATE active; positive | Test System: AMES SALMONELLA TYPHIMURIUM, Strain/Indicator: TA98, Metabolic Activation: RAT LIVER S-9, Method: STANDARD PLATE active; positive | Test System: AMES SALMONELLA TYPHIMURIUM, Strain/Indicator: TA98, Metabolic Activation: RAT, LIVER, S-9, AROCLOR 1254 (10%), Method: PREINCUBATION active; positive | [7] active; positive | Test System: AMES SALMONELLA TYPHIMURIUM, Strain/Indicator: TA1537, Metabolic Activation: RAT LIVER S-9, AROCLOR 1254 (10%), Method: STANDARD PLATE active; positive | Test System: E. COLI, Strain/Indicator: WP2 UVRA, Metabolic Activation: NONE, Method: STANDARD PLATE active; positive | Test System: MOUSE LYMPHOMA, Strain/Indicator: L5178Y(TK+/TK-), Metabolic Activation: NONE, Method: SUSPENSION/PLATE active; positive

CN=NNC
active: [6] active; positive

Cc1ccc(CC2CO2)cc1 (configuration not stated)
active: [3] active; positive | [4] active; positive | [5] active; positive | [6] active; positive

Cc1ccccc1C(=O)Cl
active: Test System: AMES SALMONELLA TYPHIMURIUM, Strain/Indicator: TA98, Metabolic Activation: RAT LIVER S-9, PCB, Method: PREINCUBATION active; positive | Test System: AMES SALMONELLA TYPHIMURIUM, Strain/Indicator: TA100, Metabolic Activation: RAT LIVER S-9, PCB, Method: PREINCUBATION active; positive | Test System: AMES SALMONELLA TYPHIMURIUM, Strain/Indicator: TA104, Metabolic Activation: RAT LIVER S-9, PCB, Method: PREINCUBATION active; positive | Test System: E.COLI, Strain/Indicator: WP2 UVRA, Metabolic Activation: NONE, Method: PREINCUBATION active; positive | Test System: E.COLI, Strain/Indicator: WP2 UVRA, Metabolic Activation: RAT LIVER S-9, PCB, Method: PREINCUBATION active; positive
inactive: [1] inactive; negative | [3] inactive; negative | Test System: AMES SALMONELLA TYPHIMURIUM, Strain/Indicator: TA104, Metabolic Activation: NONE, Method: PREINCUBATION inactive; negative

CC(=O)Nc1ccc(Oc2ccc(NO)cc2)cc1
active: Test System: AMES SALMONELLA TYPHIMURIUM, Strain/Indicator: TA98(1,8-DNP6), Metabolic Activation: NONE, Method: PREINCUBATION active; positive | Test System: AMES SALMONELLA TYPHIMURIUM, Strain/Indicator: TA98(1,8-DNP6), Metabolic Activation: RAT, LIVER, S-9, AROCLOR 1254, Method: PREINCUBATION active; positive | Test System: AMES SALMONELLA TYPHIMURIUM, Strain/Indicator: TA98(NR), Metabolic Activation: NONE, Method: PREINCUBATION active; positive | Test System: AMES SALMONELLA TYPHIMURIUM, Strain/Indicator: TA98(NR), Metabolic Activation: RAT, LIVER, S-9, AROCLOR 1254, Method: PREINCUBATION active; positive | [1] active; positive | Test System: AMES SALMONELLA TYPHIMURIUM, Strain/Indicator: TA98, Metabolic Activation: RAT, LIVER, S-9, AROCLOR 1254, Method: PREINCUBATION active; positive | Test System: AMES SALMONELLA TYPHIMURIUM, Strain/Indicator: TA100(NR), Metabolic Activation: NONE, Method: PREINCUBATION active; positive | [3] active; positive

CCC(C)(C)OC
inactive: [2] inactive; negative | Test System: AMES SALMONELLA TYPHIMURIUM, Strain/Indicator: TA98, Metabolic Activation: RAT, LIVER, S-9, AROCLOR 1254, Method: STANDARD PLATE inactive; negative | [4] inactive; negative | Test System: AMES SALMONELLA TYPHIMURIUM, Strain/Indicator: TA100, Metabolic Activation: RAT, LIVER, S-9, AROCLOR 1254, Method: STANDARD PLATE inactive; negative | [6] inactive; negative | Test System: AMES SALMONELLA TYPHIMURIUM, Strain/Indicator: TA1535, Metabolic Activation: RAT, LIVER, S-9, AROCLOR 1254, Method: STANDARD PLATE inactive; negative | [7] inactive; negative | Test System: AMES SALMONELLA TYPHIMURIUM, Strain/Indicator: TA1537, Metabolic Activation: RAT, LIVER, S-9, AROCLOR 1254, Method: STANDARD PLATE inactive; negative | Test System: AMES SALMONELLA TYPHIMURIUM, Strain/Indicator: TA1538, Metabolic Activation: NONE, Method: STANDARD PLATE inactive; negative | Test System: AMES SALMONELLA TYPHIMURIUM, Strain/Indicator: TA1538, Metabolic Activation: RAT, LIVER, S-9, AROCLOR 1254, Method: STANDARD PLATE inactive; negative
